This note sets out measurements from patent US11446287B2, “Compounds and methods for EP300 or CBP modulation and indications therefor” (Opna Immuno-Oncology SA, priority 2019, dated 2022).

This test addresses T1, Recombinant human CBP containing the bromodomain (CBP-BD (1043-1159)) (Homo sapiens, UniProt Q92793).
T1 construct: Recombinant human CBP bromodomain (CBP-BD (1043-1159)); made in house; host or cells: E. coli BL21-CodonPlus (DE3), modified pET vector
Description: CBP Alphascreen binding assay. The conditions noted are these: read-out: CREBBP (CBP) IC50. The method, boiled down:
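Buffer: 50 mM HEPES pH 7.5, 50 mM NaCl, 0.01% BSA, 0.01% Triton X-100, 2 mM DTT. The signal was normalised to plate controls and fitted with a four-parameter curve to give IC50.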

SMILES strings stand for the structures.

T1 sequence (Q92793 1081-1197): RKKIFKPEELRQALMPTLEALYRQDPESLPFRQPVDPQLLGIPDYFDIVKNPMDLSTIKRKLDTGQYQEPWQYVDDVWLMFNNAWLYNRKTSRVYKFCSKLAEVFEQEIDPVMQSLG

As to `Cc1noc(C)c1-c1cnc2c(c1)c(-c1ccc(C(=O)O)cc1Cl)cn2C(c1ccccn1)C1CCCC1` (centres unmarked) [P-0027, 3-chloro-4-(1-(cyclopentyl(pyridin-2-yl)methyl)-5-(3,5-dimethylisoxazol-4-yl)-1H-pyrrolo[2,3-b]pyridin-3-yl)benzoic acid], the IC50 (as a rule, the midpoint of a concentration-inhibition curve) lay in the range of 0.1 to 1000 nM. The figure for `Cc1cc(-c2cn(C(c3ccccn3)C3CCCC3)c3ncc(-c4c(C)noc4C)cc23)ccc1C(=O)O` (centres unmarked) [P-0028, 4-(1-(cyclopentyl(pyridin-2-yl)methyl)-5-(3,5-dimethylisoxazol-4-yl)-1H-pyrrolo[2,3-b]pyridin-3-yl)-2-methylbenzoic acid] is 0.1 to 1000 nM. Then `Cc1noc(C)c1-c1cnc2c(c1)c(-c1ccc(C(=O)O)c(C(F)(F)F)c1)cn2C(c1ccccn1)C1CCCC1` (centres unmarked) [P-0029, 4-(1-(cyclopentyl(pyridin-2-yl)methyl)-5-(3,5-dimethylisoxazol-4-yl)-1H-pyrrolo[2,3-b]pyridin-3-yl)-2-(trifluoromethyl)benzoic acid], with 0.1 to 1000 nM. Then `Cc1noc(C)c1-c1cnc2c(c1)c(-c1ccc(C(=O)O)c(O)c1)cn2C(c1ccccn1)C1CCCC1` (centres unmarked) [P-0030, 4-(1-(cyclopentyl(pyridin-2-yl)methyl)-5-(3,5-dimethylisoxazol-4-yl)-1H-pyrrolo[2,3-b]pyridin-3-yl)-2-hydroxybenzoic acid], with 1000 to 8000 nM; and `Cc1noc(C)c1-c1cnc2c(c1)c(-c1ccc(CC(=O)O)cc1)cn2C(c1ccccn1)C1CCCC1` (centres unmarked) [P-0031, 2-(4-(1-(cyclopentyl(pyridin-2-yl)methyl)-5-(3,5-dimethylisoxazol-4-yl)-1H-pyrrolo[2,3-b]pyridin-3-yl)phenyl)acetic acid], with 0.1 to 1000 nM; and `Cc1noc(C)c1-c1cnc2c(c1)c(-c1ccc(C(C)(C)C(=O)O)cc1)cn2C(c1ccccn1)C1CCCC1` (centres unmarked) [P-0032, 2-(4-(1-(cyclopentyl(pyridin-2-yl)methyl)-5-(3,5-dimethylisoxazol-4-yl)-1H-pyrrolo[2,3-b]pyridin-3-yl)phenyl)-2-methylpropanoic acid], with 0.1 to 1000 nM.

On to `Cc1noc(C)c1-c1cnc2c(c1)c(-c1ccc(C3(C(=O)O)CC3)cc1)cn2C(c1ccccn1)C1CCCC1` (centres unmarked) [P-0033, 1-(4-(1-(cyclopentyl(pyridin-2-yl)methyl)-5-(3,5-dimethylisoxazol-4-yl)-1H-pyrrolo[2,3-b]pyridin-3-yl)phenyl)cyclopropane-1-carboxylic acid], for which the IC50 lay in the range of 0.1 to 1000 nM. Consider `Cc1noc(C)c1-c1cnc2c(c1)c(-c1ccc(C(F)(F)C(=O)O)cc1)cn2C(c1ccccn1)C1CCCC1` (centres unmarked) [P-0034, 2-(4-(1-(cyclopentyl(pyridin-2-yl)methyl)-5-(3,5-dimethylisoxazol-4-yl)-1H-pyrrolo[2,3-b]pyridin-3-yl)phenyl)-2,2-difluoroacetic acid], for which the IC50 is 0.1 to 1000 nM. Then `COc1ncccc1-n1cc(-c2ccc(C(=O)O)cc2OC(F)(F)F)c2cc(-c3c(C)noc3C)cnc21` [P-0316, 4-(5-(3,5-dimethylisoxazol-4-yl)-1-(2-methoxypyridin-3-yl)-1H-pyrrolo[2,3-b]pyridin-3-yl)-3-(trifluoromethoxy)benzoic acid], with 0.1 to 1000 nM; and `Cc1ncccc1-n1cc(-c2ccc(C(=O)O)cc2OC(F)(F)F)c2cc(-c3c(C)noc3C)cnc21` [P-0317, 4-(5-(3,5-dimethylisoxazol-4-yl)-1-(2-methylpyridin-3-yl)-1H-pyrrolo[2,3-b]pyridin-3-yl)-3-(trifluoromethoxy)benzoic acid], with 0.1 to 1000 nM; and `Cc1noc(C)c1-c1cnc2c(c1)c(-c1ccc(C(=O)O)cc1OC(F)(F)F)cn2-c1cnn(C)c1` [P-0318, 4-(5-(3,5-dimethylisoxazol-4-yl)-1-(1-methyl-1H-pyrazol-4-yl)-1H-pyrrolo[2,3-b]pyridin-3-yl)-3-(trifluoromethoxy)benzoic acid], with 0.1 to 1000 nM.

Turning to `Cc1noc(C)c1-c1cnc2c(c1)c(-c1ccc(C(=O)O)cc1OC(F)(F)F)cn2-c1cncnc1` [P-0319, 4-(5-(3,5-dimethylisoxazol-4-yl)-1-(pyrimidin-5-yl)-1H-pyrrolo[2,3-b]pyridin-3-yl)-3-(trifluoromethoxy)benzoic acid], the IC50 is 0.1 to 1000 nM. The figure for `Cc1noc(C)c1-c1cnc2c(c1)c(-c1ccc(C(=O)O)cc1OC(F)(F)F)cn2-c1cnc(N)nc1` [P-0320, 4-(1-(2-aminopyrimidin-5-yl)-5-(3,5-dimethylisoxazol-4-yl)-1H-pyrrolo[2,3-b]pyridin-3-yl)-3-(trifluoromethoxy)benzoic acid] is 0.1 to 1000 nM. Then `Cc1noc(C)c1-c1cnc2c(c1)c(-c1ccc(C(=O)O)cc1OC(F)(F)F)cn2-c1cnc(N(C)C)nc1` [P-0321], with 0.1 to 1000 nM.

`Cc1noc(C)c1-c1cnc2c(c1)c(-c1ccc(C(=O)O)cc1OC(F)(F)F)cn2-c1ccc(C(=O)O)cc1` [P-0322, 4-(1-(4-carboxyphenyl)-5-(3,5-dimethylisoxazol-4-yl)-1H-pyrrolo[2,3-b]pyridin-3-yl)-3-(trifluoromethoxy)benzoic acid]: the IC50 was 0.1 to 1000 nM. The figure for `Cc1noc(C)c1-c1cnc2c(c1)c(-c1ccc(C(=O)O)cc1OC(F)(F)F)cn2-c1ccc(C(N)=O)cc1` [P-0323, 4-(1-(4-carbamoylphenyl)-5-(3,5-dimethylisoxazol-4-yl)-1H-pyrrolo[2,3-b]pyridin-3-yl)-3-(trifluoromethoxy)benzoic acid] is 0.1 to 1000 nM. The figure for `COc1cc(C(=O)O)ncc1-c1cn(-c2ccncc2Cl)c2ncc(-c3c(C)noc3C)cc12` [P-0324, 5-(1-(3-chloropyridin-4-yl)-5-(3,5-dimethylisoxazol-4-yl)-1H-pyrrolo[2,3-b]pyridin-3-yl)-4-methoxypicolinic acid] is 0.1 to 1000 nM. The figure for `Cc1noc(C)c1-c1cnc2c(c1)c(-c1ccc(C(=O)O)cc1OCC(F)F)cn2[C@H]1CCOC1` [P-0325, (S)-3-(2,2-difluoroethoxy)-4-(5-(3,5-dimethylisoxazol-4-yl)-1-(tetrahydrofuran-3-yl)-1H-pyrrolo[2,3-b]pyridin-3-yl)benzoic acid] is 0.1 to 1000 nM; for `CCn1cc(-n2cc(-c3ccc(C(=O)O)cc3OCC(F)F)c3cc(-c4c(C)noc4C)cnc32)c(C)n1` [P-0326, 3-(2,2-difluoroethoxy)-4-(5-(3,5-dimethylisoxazol-4-yl)-1-(1-ethyl-3-methyl-1H-pyrazol-4-yl)-1H-pyrrolo[2,3-b]pyridin-3-yl)benzoic acid] it is 0.1 to 1000 nM; for `Cc1noc(C)c1-c1cnc2c(c1)c(-c1c(F)cc(C(=O)O)cc1OCC(F)F)cn2-c1ccccc1` [P-0327, 3-(2,2-difluoroethoxy)-4-(5-(3,5-dimethylisoxazol-4-yl)-1-phenyl-1H-pyrrolo[2,3-b]pyridin-3-yl)-5-fluorobenzoic acid] it is 0.1 to 1000 nM. In the case of `Cc1noc(C)c1-c1cnc2c(c1)c(-c1ccc(C(=O)O)cc1OCC(F)F)cn2-c1cnc(N2CCC2)nc1` [P-0328, 4-(1-(2-(azetidin-1-yl)pyrimidin-5-yl)-5-(3,5-dimethylisoxazol-4-yl)-1H-pyrrolo[2,3-b]pyridin-3-yl)-3-(2,2-difluoroethoxy)benzoic acid], the IC50 lay within 0.1 to 1000 nM. Then `CCOc1cc(C(=O)O)nc(OCC)c1-c1cn(-c2ccc(F)cc2F)c2ncc(-c3c(C)noc3C)cc12` [P-0329, 5-(1-(2,4-difluorophenyl)-5-(3,5-dimethylisoxazol-4-yl)-1H-pyrrolo[2,3-b]pyridin-3-yl)-4,6-diethoxypicolinic acid], with 0.1 to 1000 nM; and `CCOc1cc(C(=O)O)c(F)cc1-c1cn(-c2ccc(F)cc2F)c2ncc(-c3c(C)noc3C)cc12` [P-0330, 4-(1-(2,4-difluorophenyl)-5-(3,5-dimethylisoxazol-4-yl)-1H-pyrrolo[2,3-b]pyridin-3-yl)-5-ethoxy-2-fluorobenzoic acid], with 0.1 to 1000 nM; and `Cc1noc(C)c1-c1cnc2c(c1)c(-c1c(Cl)cc(C(=O)O)cc1OCC(F)F)cn2-c1cnc(N2CCC2)nc1` [P-0331, 4-(1-(2-(azetidin-1-yl)pyrimidin-5-yl)-5-(3,5-dimethylisoxazol-4-yl)-1H-pyrrolo[2,3-b]pyridin-3-yl)-3-chloro-5-(2,2-difluoroethoxy)benzoic acid], with 0.1 to 1000 nM. The figure for `Cc1noc(C)c1-c1cnc2c(c1)c(-c1c(Cl)cc(C(=O)O)cc1OCC(F)F)cn2-c1ccccc1` [P-0332, 3-chloro-5-(2,2-difluoroethoxy)-4-(5-(3,5-dimethylisoxazol-4-yl)-1-phenyl-1H-pyrrolo[2,3-b]pyridin-3-yl)benzoic acid] is 0.1 to 1000 nM; for `Cc1noc(C)c1-c1cnc2c(c1)c(-c1c(Cl)cc(C(=O)O)cc1OCC(F)F)cn2[C@H]1CCOC1` [P-0333, (S)-3-chloro-5-(2,2-difluoroethoxy)-4-(5-(3,5-dimethylisoxazol-4-yl)-1-(tetrahydrofuran-3-yl)-1H-pyrrolo[2,3-b]pyridin-3-yl)benzoic acid] it is 0.1 to 1000 nM. As for `Cc1noc(C)c1-c1cnc2c(c1)c(-c1ccc(C(=O)O)cc1OC1CCC1)cn2-c1ncccc1C#N` [P-0334, 4-(1-(3-cyanopyridin-2-yl)-5-(3,5-dimethylisoxazol-4-yl)-1H-pyrrolo[2,3-b]pyridin-3-yl)-3-cyclobutoxybenzoic acid], the IC50 lay in the range of 0.1 to 1000 nM. Then `Cc1noc(C)c1-c1cnc2c(c1)c(-c1ccc(C(=O)O)cc1OC(F)(F)F)cn2C1(CC#N)CCC1` [P-0335, 4-(1-(1-(cyanomethyl)cyclobutyl)-5-(3,5-dimethylisoxazol-4-yl)-1H-pyrrolo[2,3-b]pyridin-3-yl)-3-(trifluoromethoxy)benzoic acid], with 0.1 to 1000 nM; and `Cc1noc(C)c1-c1cnc2c(c1)c(-c1ccc(C(=O)O)cc1OC(C)C)cn2-c1ncccc1C#N` [P-0336, 4-(1-(3-cyanopyridin-2-yl)-5-(3,5-dimethylisoxazol-4-yl)-1H-pyrrolo[2,3-b]pyridin-3-yl)-3-isopropoxybenzoic acid], with 0.1 to 1000 nM.
